In ChEMBL document CHEMBL1201862, “PubChem BioAssay data set” (2004):
Calls of active or inactive are those of the source.

What was measured:
Cytochrome P450 2C19 = Cytochrome P450 2C19 (Homo sapiens, UniProt P33261); assay: Cytochrome panel assay with activity outcomes. Panel member name: p450-cyp2c19 Compounds with AC50 equal or less than 10 uM are considered active; format: functional; settings: read-out: AC50
Cytochrome P450 2C9 = Cytochrome P450 2C9 (Homo sapiens, UniProt P11712)
[1] = molecular target: T1, Heat shock factor protein 1 (Mus musculus, UniProt P38532); assay: HSF1 potentiators in luciferase reporter cells, confirmation, cell-based, NIH3T3, luminescence, dose retest (AID 435004); format: functional;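 further: stress induced by proteasome inhibitor MG132 added 30 min after compound; luciferase reporter driven by HSF1 response element in NIH3T3 cells; actives raise luminescence as potentiators of the MG132 stress response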
T1 sequence (P38532 whole entry): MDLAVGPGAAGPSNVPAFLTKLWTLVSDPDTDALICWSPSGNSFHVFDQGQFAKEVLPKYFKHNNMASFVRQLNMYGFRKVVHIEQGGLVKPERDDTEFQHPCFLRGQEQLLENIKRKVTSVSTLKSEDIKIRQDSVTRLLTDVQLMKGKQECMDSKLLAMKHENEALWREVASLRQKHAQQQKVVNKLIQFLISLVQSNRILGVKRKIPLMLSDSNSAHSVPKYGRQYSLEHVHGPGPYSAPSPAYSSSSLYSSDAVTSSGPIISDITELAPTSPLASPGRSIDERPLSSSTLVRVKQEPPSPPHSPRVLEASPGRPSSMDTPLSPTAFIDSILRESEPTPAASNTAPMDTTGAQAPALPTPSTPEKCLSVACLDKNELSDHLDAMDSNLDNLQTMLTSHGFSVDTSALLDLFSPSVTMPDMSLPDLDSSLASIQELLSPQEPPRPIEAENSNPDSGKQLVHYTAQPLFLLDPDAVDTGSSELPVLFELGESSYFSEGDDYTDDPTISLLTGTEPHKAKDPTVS

[2] = NIH-3T3 fibroblast cytotoxicity, dose response, cytotoxicity control, cell-based, fluorescence, Alamar Blue, secondary assay (AID 2327); format: functional;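 further: NIH-3T3 mouse fibroblasts cultured with fluconazole at 8 µg/mL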
[3] = inhibitors of SNCA 5'UTR-driven reporter translation, confirmation, H4 neuroglioma cells, luminescence (AID 1988); format: functional, cell-based
[4] = Luminescence Cell-Based Dose Response HTS to Identify Inhibitors of 5'UTR Stem-Loop Driven Prion Protein mRNA Translation in H4 Neuroglioblastoma Cells. [Related pubchem assays: 1827 (Project Summary), 1813 (Primary HTS)]; format: functional
[5] = C. albicans growth with fluconazole, confirmation, fluorescence, retest (AID 2467); format: functional, cell-based
[6] = inhibitors of firefly luciferase expression or activity, dose response, H4 neuroglioma cells, luminescence (AID 1990); format: functional, cell-based
[7] = molecular target: T2, Zinc finger protein mex-5 (Caenorhabditis elegans, UniProt Q9XUB2); assay: MEX-5/TCR-2 RNA interaction inhibitors, dose response, biochemical, C. elegans, fluorescence polarization (AID 1960)
T2 sequence (Q9XUB2 whole entry): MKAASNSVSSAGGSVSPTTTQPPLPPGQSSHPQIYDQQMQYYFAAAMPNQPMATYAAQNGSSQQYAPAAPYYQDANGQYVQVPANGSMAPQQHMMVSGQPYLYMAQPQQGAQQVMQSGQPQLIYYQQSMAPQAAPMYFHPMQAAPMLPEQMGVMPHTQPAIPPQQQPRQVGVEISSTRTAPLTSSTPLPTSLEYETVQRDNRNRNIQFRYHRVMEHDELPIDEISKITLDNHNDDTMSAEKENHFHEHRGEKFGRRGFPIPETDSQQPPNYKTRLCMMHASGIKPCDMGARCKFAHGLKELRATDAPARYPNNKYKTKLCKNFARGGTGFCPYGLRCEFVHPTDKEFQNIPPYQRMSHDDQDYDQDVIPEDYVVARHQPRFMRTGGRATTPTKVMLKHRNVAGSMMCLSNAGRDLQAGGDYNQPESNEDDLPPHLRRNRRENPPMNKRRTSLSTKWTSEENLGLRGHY

[8] = molecular target: T3, RNA-binding protein pos-1 (Caenorhabditis elegans, UniProt G5EF15); assay: inhibitors of POS-1/mex-3 RNA binding, dose response, biochemical, fluorescence polarization (AID 1964);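 further: purified POS-1 fused to maltose binding protein made in E. coli; potency of compounds blocking POS-1 binding to fluorescent RNA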
T3 sequence (G5EF15 whole entry): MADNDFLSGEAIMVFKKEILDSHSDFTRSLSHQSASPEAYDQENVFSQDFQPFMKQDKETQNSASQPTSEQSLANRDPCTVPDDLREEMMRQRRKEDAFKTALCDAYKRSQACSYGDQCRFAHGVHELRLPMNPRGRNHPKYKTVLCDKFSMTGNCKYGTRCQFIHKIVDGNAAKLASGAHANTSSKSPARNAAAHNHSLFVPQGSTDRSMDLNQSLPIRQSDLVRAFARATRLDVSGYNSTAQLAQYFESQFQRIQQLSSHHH

Cytochrome P450 3A4 = Cytochrome P450 3A4 (Homo sapiens, UniProt P08684);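 further: CYP3A4 tested as one member of a cytochrome P450 panel screen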
Cytochrome P450 3A4, sequence (P08684 whole entry): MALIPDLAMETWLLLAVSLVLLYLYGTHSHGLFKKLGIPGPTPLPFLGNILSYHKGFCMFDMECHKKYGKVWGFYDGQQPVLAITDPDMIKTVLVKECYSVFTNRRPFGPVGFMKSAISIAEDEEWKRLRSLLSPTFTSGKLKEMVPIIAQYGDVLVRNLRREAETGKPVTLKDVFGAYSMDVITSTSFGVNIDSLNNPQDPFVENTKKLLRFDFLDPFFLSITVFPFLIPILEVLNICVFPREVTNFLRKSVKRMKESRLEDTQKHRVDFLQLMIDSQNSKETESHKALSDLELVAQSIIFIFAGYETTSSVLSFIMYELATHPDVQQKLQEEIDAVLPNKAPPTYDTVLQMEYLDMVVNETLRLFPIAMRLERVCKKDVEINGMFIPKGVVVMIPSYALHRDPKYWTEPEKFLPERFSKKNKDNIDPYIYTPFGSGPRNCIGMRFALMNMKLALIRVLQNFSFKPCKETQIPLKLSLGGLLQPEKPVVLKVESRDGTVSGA

[9] = inhibitors of intracellular T. cruzi replication, confirmation, NIH3T3 host cells, beta-gal luminescence (AID 2044); format: functional, cell-based;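 further: intracellular parasites grown in NIH/3T3 mouse fibroblasts as host cells; luminescent beta-galactosidase reporter signal from transgenic T. cruzi replicating inside host cells; inhibitors lower the luminescence signal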
[10] = cytotoxicity toward NIH3T3 fibroblasts, dose response, counter-screen, cell-based, ATP luminescence, mouse fibroblasts (AID 2010); format: functional;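 further: cells exposed to compound for about 90 hours before reading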

Cytochrome P450 2C19, sequence (P33261 whole entry): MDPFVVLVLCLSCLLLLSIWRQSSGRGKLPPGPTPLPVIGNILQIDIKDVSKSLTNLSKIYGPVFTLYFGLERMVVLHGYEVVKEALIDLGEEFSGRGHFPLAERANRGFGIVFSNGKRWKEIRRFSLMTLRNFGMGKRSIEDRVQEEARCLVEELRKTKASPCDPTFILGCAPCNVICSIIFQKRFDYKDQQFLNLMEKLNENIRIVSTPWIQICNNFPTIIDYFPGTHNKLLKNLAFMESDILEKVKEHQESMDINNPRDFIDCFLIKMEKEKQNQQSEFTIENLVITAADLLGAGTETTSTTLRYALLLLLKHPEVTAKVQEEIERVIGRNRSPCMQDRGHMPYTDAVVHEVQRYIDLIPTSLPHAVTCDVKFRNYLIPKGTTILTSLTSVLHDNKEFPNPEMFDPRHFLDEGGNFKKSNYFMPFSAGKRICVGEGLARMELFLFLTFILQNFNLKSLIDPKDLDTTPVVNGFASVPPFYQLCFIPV
Cytochrome P450 2C9, sequence (P11712 whole entry): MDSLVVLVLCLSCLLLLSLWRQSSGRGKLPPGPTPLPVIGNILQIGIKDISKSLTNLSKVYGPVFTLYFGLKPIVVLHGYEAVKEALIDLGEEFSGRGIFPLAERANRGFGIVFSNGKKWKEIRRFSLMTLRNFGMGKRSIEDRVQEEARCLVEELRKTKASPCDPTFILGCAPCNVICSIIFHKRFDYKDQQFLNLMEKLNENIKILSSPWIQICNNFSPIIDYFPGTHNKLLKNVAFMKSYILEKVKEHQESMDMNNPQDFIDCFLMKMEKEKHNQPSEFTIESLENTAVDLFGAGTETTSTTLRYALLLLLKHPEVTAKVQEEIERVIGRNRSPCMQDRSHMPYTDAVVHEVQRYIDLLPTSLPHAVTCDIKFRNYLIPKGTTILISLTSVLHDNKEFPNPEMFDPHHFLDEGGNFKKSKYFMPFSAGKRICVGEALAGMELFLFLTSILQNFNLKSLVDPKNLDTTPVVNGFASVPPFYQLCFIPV

SMILES: Cc1cc(C)cc(N(C(=O)c2ccccn2)C(C(=O)NC2CCCCC2)c2cccs2)c1 (stereo not drawn)
- AC50 (Cytochrome P450 2C19): 17.8 µM (inconclusive)
- AC50 (Cytochrome P450 2C9): 15.8 µM (inconclusive)

SMILES: Clc1ccc(CNC2CCN(Cc3ccccc3)CC2)cc1
- EC50 [1]: > 260 µM (inactive)

SMILES: COc1ccc2c(c1)CCN=C2Cc1ccc(OC)c(OC)c1
- EC50 [2]: 66.8 µM (active)
- EC50 [3]: > 120 µM (not active)
- EC50 [4]: > 120 µM (not active)
- EC50 [5]: > 38 µM (not active)
- EC50 [6]: > 120 µM (not active)

SMILES: COc1ccc(C2/C=C\CN(S(=O)(=O)/C=C/c3ccccc3)[C@H](Cc3ccccc3)C(=O)N2Cc2ccc(F)cc2)cc1 (stereo partly drawn)
- EC50 [1]: > 260 µM (inactive)

SMILES: O=C(Nc1ccc(Br)cn1)c1ccc2nccnc2c1
- EC50 [7]: > 300 µM (not active)
- EC50 [8]: > 300 µM (not active)

SMILES: CCCOc1cccc(C(=O)Nc2cccnc2)c1
- EC50 [2]: > 150 µM (inactive)
- EC50 [5]: > 38 µM (not active)

SMILES: CS(=O)(=O)c1ccc(-c2cc(Br)sc2-c2ccc(F)cc2)cc1 [DUP-697]
- AC50 (Cytochrome P450 3A4): 20 µM (inconclusive)

SMILES: Cc1ccc(CS(=O)(=O)CCC(=O)NCCCOC(C)C)cc1
- AC50 (Cytochrome P450 3A4): 35.5 µM (inconclusive)

SMILES: N#CCCn1c(=O)c(-c2cccs2)nc2cnc(Oc3cccc(Cl)c3)nc21
- AC50 (Cytochrome P450 3A4): 7.94 µM (inconclusive)
- AC50 (Cytochrome P450 2C9): 6.31 µM (inconclusive)

SMILES: NS(=O)(=O)c1cc(C(=O)O)c(O)c2ccccc12
- AC50 (Cytochrome P450 2C9): 3.98 µM (inconclusive)

SMILES: COc1ccc(NS(=O)(=O)c2cc(NC(=O)c3cnccn3)ccc2N2CCCC2)cc1
- EC50 [1]: > 260 µM (inactive)

SMILES: O=S(=O)(c1ccc(-n2cnnn2)cc1)N1CCNCC1
- EC50 [1]: > 260 µM (inactive)

SMILES: CCOc1cc(N2CCOCC2)c(OCC)cc1NC(=O)Cc1cccc2ccccc12
- EC50 [1]: > 260 µM (inactive)

SMILES: CC(C)C(C(=O)NCc1ccccc1)N(CC1CCCO1)C(=O)CNS(=O)(=O)c1ccccc1 (stereo not drawn)
- EC50 [1]: > 260 µM (inactive)

SMILES: Nc1n[nH]c2nc3ccccc3nc12 [QUINOXALINE1]
- AC50 (Cytochrome P450 3A4): 0.126 µM (inconclusive)

SMILES: O=C(NNC(=O)c1cnccn1)c1cccc([N+](=O)[O-])c1
- EC50 [7]: 1.03 µM (active)
- EC50 [8]: 22.1 µM (active)

SMILES: CCOC(=O)c1c(C)[nH]c(C)c1S(=O)(=O)N1CCN(c2cccc(C)c2)C(C)C1 (stereo not drawn)
- EC50 [1]: > 260 µM (inactive)

SMILES: C=CCN1C(=O)S/C(=C\c2ccc(N3CCOCC3)cc2C)C1=O
- EC50 [7]: 61.3 µM (inconclusive)
- EC50 [8]: 40.8 µM (active)

SMILES: CN1C[C@H](CO)C=C2c3cccc4[nH]cc(c34)C[C@@H]21
- AC50 (Cytochrome P450 3A4): 12.6 µM (inconclusive)

SMILES: COc1ccc(NC(=O)c2cccs2)c([N+](=O)[O-])c1
- AC50 (Cytochrome P450 2C9): 7.94 µM (inconclusive)

SMILES: CCOC(=O)c1sc(Nc2nc3c(OC)cccc3s2)nc1C
- EC50 [2]: 48.9 µM (active)
- EC50 [5]: 2.8 µM (active)

SMILES: COc1cccc(CN2C(=O)C3(C(C#N)=C(N)OC4=C3C(=O)CCC4)c3ccccc32)c1 (stereo not drawn)
- EC50 [2]: > 160 µM (inconclusive)
- EC50 [3]: 20.1 µM (active)
- EC50 [4]: > 120 µM (not active)
- EC50 [5]: 1.24 µM (active)
- EC50 [7]: > 300 µM (not active)
- EC50 [8]: > 300 µM (not active)
- EC50 [6]: 19.2 µM (active)

SMILES: Cc1cc(C(F)(F)F)n2nc(-c3cnn(C)c3C(F)(F)F)cc2n1
- AC50 (Cytochrome P450 3A4): 17.8 µM (inconclusive)
- AC50 (Cytochrome P450 2C9): 7.08 µM (inconclusive)

SMILES: Cc1cc2c3c(c1)C1(C(=O)N3C(C)(C)CC2C)C(C#N)=C(N)OC2=C1C(=O)CC(C)(C)C2 (stereo not drawn)
- EC50 [7]: > 300 µM (not active)
- EC50 [8]: > 300 µM (not active)

SMILES: COc1cccc(Nc2ncc3nc(C)c(=O)n(CCc4ccccc4)c3n2)c1
- AC50 (Cytochrome P450 2C9): 3.16 µM (inconclusive)

SMILES: Cc1cc(C)nc(NC(=O)c2cccc([N+](=O)[O-])c2C)n1
- AC50 (Cytochrome P450 2C9): 11.2 µM (inconclusive)

SMILES: Cc1ccc(OCCCC(=O)NCc2ccco2)cc1
- AC50 (Cytochrome P450 3A4): 17.8 µM (inconclusive)

SMILES: CC1CCCN(C(=O)c2cccc(S(=O)(=O)Nc3cc(C(F)(F)F)ccc3Cl)c2)C1 (stereo not drawn)
- EC50 [2]: > 150 µM (inactive)
- EC50 [5]: > 38 µM (not active)

SMILES: C1CNCCOCCNCCN1
- AC50 (Cytochrome P450 2C9): 17.8 µM (inconclusive)

SMILES: O=S(=O)(Nc1cccc2ccccc12)c1cccc2nonc12
- EC50 [1]: > 260 µM (inactive)

SMILES: CSCC(C)N1CCC(n2nccc2NC(=O)CCCc2ccccc2)CC1 (stereo not drawn)
- EC50 [7]: 8.67 µM (active)
- EC50 [8]: 6.99 µM (active)

SMILES: CCCc1cc(=O)oc2cc(C)c(CN3CCCC3)c(O)c12
- EC50 [1]: > 260 µM (inactive)

SMILES: O=C(Cn1nnc2ccccc21)N/N=C\C=C\c1ccccc1
- AC50 (Cytochrome P450 2C19): 14.1 µM (inconclusive)
- AC50 (Cytochrome P450 2C9): 12.6 µM (inconclusive)

SMILES: C=CCNC(=O)CSc1nnc(C(CC)N(C)C)n1C1CCCCC1 (stereo not drawn)
- EC50 [1]: > 260 µM (inactive)

SMILES: Cc1c(Cl)cccc1N1C(=O)NC(=O)/C(=C\c2cc(C)n(-c3cccc(C(=O)O)c3C)c2C)C1=O
- EC50 [7]: > 300 µM (not active)
- EC50 [8]: > 300 µM (not active)

SMILES: CC(C)NC(=O)N1CCCC2(CCN(C(=O)c3cccn3C)CC2)C1
- AC50 (Cytochrome P450 3A4): 25.1 µM (inconclusive)

SMILES: COCCNC(=O)C(c1ccc(C)cc1)N(C(=O)CCC(=O)Nc1ccccn1)c1ccccc1C (stereo not drawn)
- EC50 [1]: > 260 µM (inactive)

SMILES: O=C(CCC(=O)Nc1ccccc1Cl)NNS(=O)(=O)c1ccc(Cl)cc1
- EC50 [2]: > 160 µM (inactive)
- EC50 [5]: > 38 µM (not active)

SMILES: O=c1c(-c2cccs2)nc2cnc(N3CCOCC3)nc2n1CCc1ccccc1
- AC50 (Cytochrome P450 3A4): 12.6 µM (inconclusive)

SMILES: CC(C)(C)c1nn(-c2ccccc2)c2[nH]c(=O)c(CNCc3ccco3)cc12
- EC50 [7]: > 300 µM (not active)
- EC50 [8]: > 300 µM (not active)

SMILES: CC(C)=NO[C@@H](C)c1cc(-c2c(C)cc(C)cc2C)no1
- AC50 (Cytochrome P450 3A4): 3.16 µM (inconclusive)
- AC50 (Cytochrome P450 2C19): 0.631 µM (inconclusive)

SMILES: CC(=O)Nc1ccc(S(=O)(=O)NCc2nc(-c3cccc(C)c3)no2)cc1
- EC50 [7]: > 300 µM (not active)
- EC50 [8]: 85.6 µM (active)

SMILES: Nc1ccc(S(=O)(=O)NNC(=O)C(=O)NNc2ccccc2)cc1
- EC50 [2]: 1.48 µM (active)
- EC50 [9]: 0.75 µM (active)
- EC50 [5]: > 38 µM (not active)
- EC50 [10]: 1.96 µM (active)
